The results in this text go back to patent US11173145B2, “Compounds useful as inhibitors of indoleamine 2,3-dioxygenase and/or tryptophan dioxygenase” (Board of Regents, The University of Texas System, priority 2017, dated 2021).

SMILES strings stand for the structures.

What is called IC50 is the concentration needed to halve the response being measured. High values mean lower potency, low ones higher potency.

One experiment concerns the target T1, IDO1 (Homo sapiens, UniProt P14902).
T1 construct: endogenous in cells; host or cells: HeLa cells (ATCC), IFNgamma-induced
Put plainly: IDO1 cell-based assay (HeLa cells, IFNgamma-induced, N-formylkynurenine/L-tryptophan by RFMS). To be noted: 10 ng/mL IFNgamma, 24 hours. Put shortly: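 HeLa cells stimulated with 10 ng/mL IFNgamma and exposed to compound (0.5% DMSO final) for 24 h at 37 °C. Conditioned media deproteinized, then N-formylkynurenine and L-tryptophan quantified by RapidFire MS with deuterated tryptophan internal standard; IC50 by curve fitting. Viability checked by CellTiter-Glo.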

The next experiment has as its target T2, mouse IDO1 (Mus musculus, UniProt P28776).
T2 construct: The murine PANC02 pancreatic ductal adenocarcinoma cell line was routinely maintained in DMEM media; endogenous in cells; host or cells: PANC02 murine pancreatic ductal adenocarcinoma cells, induced with mouse IFNgamma
Description: Mouse IDO1 cell-based assay (PANC02 cells, mouse IFNgamma-induced, N-formylkynurenine/L-tryptophan by RFMS). Conditions: 30 ng/mL mouse IFNgamma, 48 hours.

T2 sequence (P28776 whole entry): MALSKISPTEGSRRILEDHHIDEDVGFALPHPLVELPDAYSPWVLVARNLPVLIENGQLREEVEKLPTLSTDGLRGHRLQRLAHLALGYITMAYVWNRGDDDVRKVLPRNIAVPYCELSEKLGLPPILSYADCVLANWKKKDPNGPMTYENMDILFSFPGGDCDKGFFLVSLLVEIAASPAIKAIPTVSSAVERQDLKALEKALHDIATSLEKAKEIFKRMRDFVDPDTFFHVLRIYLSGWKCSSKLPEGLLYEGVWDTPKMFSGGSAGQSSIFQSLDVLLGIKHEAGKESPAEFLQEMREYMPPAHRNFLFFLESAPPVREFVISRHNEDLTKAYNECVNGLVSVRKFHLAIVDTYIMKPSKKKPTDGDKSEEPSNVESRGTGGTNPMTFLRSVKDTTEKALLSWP
T1 sequence (P14902 whole entry): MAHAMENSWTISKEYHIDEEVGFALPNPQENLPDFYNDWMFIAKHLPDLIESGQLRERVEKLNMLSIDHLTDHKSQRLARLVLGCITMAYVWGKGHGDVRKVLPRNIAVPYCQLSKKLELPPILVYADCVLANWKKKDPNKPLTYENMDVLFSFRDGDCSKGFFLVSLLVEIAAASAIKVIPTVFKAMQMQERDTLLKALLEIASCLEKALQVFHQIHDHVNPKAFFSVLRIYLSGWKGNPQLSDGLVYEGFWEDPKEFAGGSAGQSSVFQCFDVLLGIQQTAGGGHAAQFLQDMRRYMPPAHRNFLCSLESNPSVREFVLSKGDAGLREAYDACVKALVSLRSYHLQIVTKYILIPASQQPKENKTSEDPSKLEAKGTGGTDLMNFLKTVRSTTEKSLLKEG

Turning to `CCC(NC(=O)c1ccc(Cl)cc1)[C@H]1[C@@H]2C[C@@H](n3cc4cccnc4n3)C[C@@H]21` (stereo partly drawn) [Compound 211, N-(1-((1R,3s,5S,6r)-3-(2H-pyrazolo[3,4-b]pyridin-2-yl)bicyclo[3.1.0]hexan-6-yl)propyl)-4-chlorobenzamide], the IC50 was under 200 nM on IDO1 and under 500 nM at mouse IDO1.

Consider `CCC(NC(=O)c1ccc(Cl)cc1)[C@H]1[C@@H]2C[C@@H](NC(=O)c3ccc(F)cn3)C[C@@H]21` (stereo partly drawn) [Compound 144, N-((1R,3s,5S,6r)-6-(1-(4-chlorobenzamido)propyl)bicyclo[3.1.0]hexan-3-yl)-5-fluoropicolinamide], for which the figures for the IC50 on IDO1 and against mouse IDO1 were under 200 nM and 500 to 2000 nM, respectively.

Consider `CCC(NC(=O)c1ccc(Cl)cc1)[C@H]1[C@@H]2C[C@@H](n3nncc3C3CC3)C[C@@H]21` (stereo partly drawn) [Compound 153, 4-chloro-N-(1-((1R,3s,5S,6r)-3-(5-cyclopropyl-1H-1,2,3-triazol-1-yl)bicyclo[3.1.0]hexan-6-yl)propyl)benzamide], for which the IC50 at IDO1 is under 200 nM; against mouse IDO1, under 500 nM.

For `CCC(NC(=O)c1ccc(Cl)cc1)[C@H]1[C@@H]2C[C@@H](NC(=O)c3cn[nH]c3)C[C@@H]21` (stereo partly drawn) [Compound 177, N-((1R,3s,5S,6r)-6-(1-(4-chlorobenzamido)propyl)bicyclo[3.1.0]hexan-3-yl)-1H-pyrazole-4-carboxamide], the IC50 is 200 to 2000 nM against IDO1 and over 5000 nM on mouse IDO1.

With `CCC(NC(=O)c1ccc(Cl)cc1)[C@H]1[C@@H]2C[C@@H](n3cc(N)nn3)C[C@@H]21` (stereo partly drawn) [Compound 239, N-(1-((1R,3s,5S,6r)-3-(4-amino-1H-1,2,3-triazol-1-yl)bicyclo[3.1.0]hexan-6-yl)propyl)-4-chlorobenzamide], the figures for the IC50 against IDO1 and on mouse IDO1 were 2000 to 5000 nM and over 5000 nM, respectively.

`CCC(NC(=O)c1ccc(Cl)cc1)[C@H]1[C@@H]2C[C@@H](n3cnc(C4CC4)c3)C[C@@H]21` (stereo partly drawn) [Compound 261, 4-chloro-N-(1-((1R,3s, 5S, 6r)-3-(4-cyclopropyl-1H-imidazol-1-yl)bicyclo[3.1.0]hexan-6-yl)propyl)benzamide]: the IC50 against IDO1 is under 200 nM; at mouse IDO1, 500 to 2000 nM.

In the case of `CCC(NC(=O)c1ccc(Cl)cc1)[C@H]1[C@@H]2C[C@H](n3cc(COCCOC)nn3)C[C@@H]21` (stereo partly drawn) [Compound 215, 4-chloro-N-(1-((1R,3r,5S,6r)-3-(4-((2-methoxyethoxy)methyl)-1H-1,2,3-triazol-1-yl)bicyclo[3.1.0]hexan-6-yl)propyl)benzamide], the IC50 on IDO1 is 200 to 2000 nM; on mouse IDO1, 500 to 2000 nM.

`O=C(NCc1ccc(Cl)cc1)[C@H]1[C@@H]2CN(c3ncnc4ccc(F)cc34)C[C@@H]21` [Compound 251, (1R,5S,6r)-N-(4-chlorobenzyl)-3-(6-fluoroquinazolin-4-yl)-3-azabicyclo[3.1.0]hexane-6-carboxamide]: the IC50 against IDO1 and on mouse IDO1 was over 5000 nM each time.

Take `CCC(NC(=O)c1ccc(Cl)cc1)[C@H]1[C@@H]2C[C@@H](n3cc4c(F)cccc4n3)C[C@@H]21` (stereo partly drawn) [Compound 209, 4-chloro-N-(1-((1R,3s,5S,6r)-3-(4-fluoro-2H-indazol-2-yl)bicyclo[3.1.0]hexan-6-yl)propyl)benzamide]: the results for the IC50 against IDO1 and on mouse IDO1 were under 200 nM and under 500 nM, respectively.

For `C[C@H](NC(=O)c1ccc(C#N)cc1)[C@H]1[C@@H]2C[C@@H](Oc3ncnc4ccc(F)cc34)C[C@@H]21` [Compound 130, 4-cyano-N-((R)-1-((1R,3S,5S,6r)-3-((6-fluoroquinazolin-4-yl)oxy)bicyclo[3.1.0]hexan-6-yl)ethyl)benzamide], the IC50 was under 200 nM against IDO1 and under 500 nM against mouse IDO1.

Regarding `CCC(NC(=O)c1ccc(Cl)cc1)[C@H]1[C@@H]2C[C@@H](NC(=O)c3cc(C(F)(F)F)ccn3)C[C@@H]21` (stereo partly drawn) [Compound 225, N-((1R,3s,5S,6r)-6-(1-(4-chlorobenzamido)propyl)bicyclo[3.1.0]hexan-3-yl)-4-(trifluoromethyl)picolinamide], the IC50 against IDO1 was under 200 nM; against mouse IDO1 it was 2000 to 5000 nM.

On to `CCC(NC(=O)c1ccc(Cl)cc1)[C@H]1[C@@H]2C[C@@H](n3cccc4ncnc3-4)C[C@@H]21` (stereo partly drawn) [Compound 182, N-(1-((1R,3s,5S,6r)-3-(4H-imidazo[4,5-b]pyridin-4-yl)bicyclo[3.1.0]hexan-6-yl)propyl)-4-chlorobenzamide], for which the figures for the half-inhibitory concentration (IC50) on IDO1 and against mouse IDO1 were 200 to 2000 nM and over 5000 nM, respectively.

On to `CCC(NC(=O)c1ccc(Cl)cc1)[C@H]1[C@@H]2C[C@@H](Nc3ncc(F)cc3[N+](=O)[O-])C[C@@H]21` (stereo partly drawn) [Compound 236, 4-chloro-N-(1-((1R,3s,5S,6r)-3-((5-fluoro-3-nitropyridin-2-yl)amino)bicyclo[3.1.0]hexan-6-yl)propyl)benzamide], for which the IC50 against IDO1 is under 200 nM; at mouse IDO1, 500 to 2000 nM.

Turning to `CCC(NC(=O)c1ccc(Cl)cc1)[C@H]1[C@@H]2C[C@H](n3nncc3C3CC3)C[C@@H]21` (stereo partly drawn) [Compound 191, 4-chloro-N-(1-((1R,3r,5S,6r)-3-(5-cyclopropyl-1H-1,2,3-triazol-1-yl)bicyclo[3.1.0]hexan-6-yl)propyl)benzamide], the IC50 against IDO1 lay in the range of 200 to 2000 nM; against mouse IDO1 it was 500 to 2000 nM.

On to `O=C(NC(CO)[C@H]1[C@@H]2C[C@@H](n3cc(C4CC4)nn3)C[C@@H]21)c1ccc(Cl)cc1` (stereo partly drawn) [Compound 168, 4-chloro-N-(1-((1R,3s,5S,6r)-3-(4-cyclopropyl-1H-1,2,3-triazol-1-yl)bicyclo[3.1.0]hexan-6-yl)-2-hydroxyethyl)benzamide], for which the half-maximal inhibitory concentration (IC50) against IDO1 was 2000 to 5000 nM; against mouse IDO1, over 5000 nM.
